Test results from the NIST ThermoML archive (doi:10.1016/j.jct.2015.03.001).

Key:
[1] = refractive index (Na D-line) (dimensionless); xn = mol fraction of the nth substance listed; conditions: 99 kPa, Liquid, Abbe refractometer
[2] = relative permittivity at various frequencies (dimensionless); xn = mol fraction of the nth substance listed; conditions: 99 kPa, Liquid, Frequency=2 MHz, Parallel plate capacitor

CC(C)(C)Cl [2-chloro-2-methylpropane] + CCCCCCC
Conditions	refractive index, 283.15 K	refractive index, 298.15 K	refractive index, 313.15 K	relative permittivity, 283.15 K	relative permittivity, 298.15 K	relative permittivity, 313.15 K
[1], x2 = 0	1.39115	1.38225	1.37312	–	–	–
[1], x2 = 0.0511	1.39054	1.38172	1.37267	–	–	–
[1], x2 = 0.0962	1.39025	1.38149	1.37249	–	–	–
[1], x2 = 0.1985	1.38996	1.3813	1.37238	–	–	–
[1], x2 = 0.2955	1.38988	1.38132	1.37254	–	–	–
[1], x2 = 0.3985	1.39001	1.38159	1.37294	–	–	–
[1], x2 = 0.4985	1.39024	1.38196	1.37347	–	–	–
[1], x2 = 0.5996	1.39059	1.38244	1.37414	–	–	–
[1], x2 = 0.7039	1.39105	1.38306	1.37492	–	–	–
[1], x2 = 0.8032	1.39164	1.38375	1.37573	–	–	–
[1], x2 = 0.9039	1.39225	1.38447	1.37653	–	–	–
[1], x2 = 0.9618	1.39267	1.38492	1.37703	–	–	–
[2], x2 = 0	–	–	–	10.429	9.67	8.952
[2], x2 = 0.0506	–	–	–	9.787	9.1	8.449
[2], x2 = 0.1035	–	–	–	9.109	8.485	7.907
[2], x2 = 0.2006	–	–	–	7.895	7.373	6.892
[2], x2 = 0.3012	–	–	–	6.721	6.293	5.932
[2], x2 = 0.3976	–	–	–	5.754	5.41	5.118
[2], x2 = 0.504	–	–	–	4.827	4.566	4.34
[2], x2 = 0.6015	–	–	–	4.103	3.914	3.747
[2], x2 = 0.6988	–	–	–	3.472	3.341	3.226
[2], x2 = 0.8014	–	–	–	2.905	2.819	2.749
[2], x2 = 0.9027	–	–	–	2.407	2.359	2.322
[2], x2 = 0.9444	–	–	–	2.209	2.173	2.144

CCCCCl [1-chlorobutane] + CCCCCCC
Conditions	refractive index, 283.15 K	refractive index, 298.15 K	refractive index, 313.15 K	relative permittivity, 283.15 K	relative permittivity, 298.15 K	relative permittivity, 313.15 K
[1], x2 = 0	1.4075	1.3995	1.39131	–	–	–
[1], x2 = 0.0503	1.40636	1.39837	1.39019	–	–	–
[1], x2 = 0.1023	1.40522	1.39724	1.38907	–	–	–
[1], x2 = 0.201	1.40318	1.39522	1.38708	–	–	–
[1], x2 = 0.3012	1.40132	1.39338	1.38527	–	–	–
[1], x2 = 0.4003	1.39966	1.39175	1.38367	–	–	–
[1], x2 = 0.4985	1.3982	1.39033	1.38227	–	–	–
[1], x2 = 0.5963	1.39694	1.38909	1.38108	–	–	–
[1], x2 = 0.7037	1.39573	1.38793	1.37996	–	–	–
[1], x2 = 0.82	1.39458	1.38682	1.3789	–	–	–
[1], x2 = 0.9094	1.39373	1.386	1.37811	–	–	–
[1], x2 = 0.949	1.39337	1.38565	1.37778	–	–	–
[2], x2 = 0	–	–	–	7.552	7.157	6.757
[2], x2 = 0.0484	–	–	–	7.201	6.84	6.47
[2], x2 = 0.101	–	–	–	6.808	6.475	6.132
[2], x2 = 0.1965	–	–	–	6.051	5.77	5.492
[2], x2 = 0.2708	–	–	–	5.486	5.243	5.005
[2], x2 = 0.4005	–	–	–	4.601	4.417	4.237
[2], x2 = 0.5038	–	–	–	3.999	3.855	3.715
[2], x2 = 0.5995	–	–	–	3.52	3.404	3.299
[2], x2 = 0.6978	–	–	–	3.089	3.001	2.921
[2], x2 = 0.805	–	–	–	2.665	2.608	2.545
[2], x2 = 0.897	–	–	–	2.327	2.287	2.247
[2], x2 = 0.9475	–	–	–	2.138	2.112	2.079

CC(C)CCl [1-chloro-2-methylpropane] + CCCCCCC
Conditions	refractive index, 283.15 K	refractive index, 298.15 K	refractive index, 313.15 K	relative permittivity, 283.15 K	relative permittivity, 298.15 K	relative permittivity, 313.15 K
[1], x2 = 0	1.40354	1.39529	1.38683	–	–	–
[1], x2 = 0.0485	1.40248	1.39425	1.38582	–	–	–
[1], x2 = 0.1009	1.40145	1.39325	1.38485	–	–	–
[1], x2 = 0.2046	1.39974	1.39161	1.38327	–	–	–
[1], x2 = 0.3065	1.3983	1.39022	1.38196	–	–	–
[1], x2 = 0.4028	1.39716	1.38914	1.38093	–	–	–
[1], x2 = 0.5039	1.3961	1.38814	1.37999	–	–	–
[1], x2 = 0.603	1.3952	1.38729	1.3792	–	–	–
[1], x2 = 0.7033	1.39445	1.3866	1.37858	–	–	–
[1], x2 = 0.8026	1.39381	1.38601	1.37804	–	–	–
[1], x2 = 0.9158	1.39326	1.38548	1.37758	–	–	–
[1], x2 = 0.9513	1.3931	1.38538	1.37749	–	–	–
[2], x2 = 0	–	–	–	7.472	7.074	6.657
[2], x2 = 0.0467	–	–	–	7.151	6.783	6.395
[2], x2 = 0.1011	–	–	–	6.755	6.418	6.062
[2], x2 = 0.197	–	–	–	6.042	5.749	5.45
[2], x2 = 0.297	–	–	–	5.32	5.08	4.828
[2], x2 = 0.4028	–	–	–	4.619	4.43	4.232
[2], x2 = 0.5045	–	–	–	4.028	3.88	3.725
[2], x2 = 0.6012	–	–	–	3.537	3.425	3.3
[2], x2 = 0.7002	–	–	–	3.094	3.012	2.918
[2], x2 = 0.801	–	–	–	2.697	2.636	2.568
[2], x2 = 0.9058	–	–	–	2.303	2.262	2.219
[2], x2 = 0.9473	–	–	–	2.147	2.114	2.081
